Here are results for 23 compounds from patent US8877731B2, “Azido nucleosides and nucleotide analogs” (Alios Biopharma, Inc., priority 2010, dated 2014).

One assay concerns RSV Long strain. Briefly: RSV CPE reduction assay. Type of assay: cell-based. The method, then:
CPE reduction assays were performed as described by Sidwell and Huffman et al., Appl Microbiol. (1971) 22(5):797-801 with slight modifications. HEp-2 cells (ATCC) at a concentration of 6000 cell/well were infected with RSV Long strain (ATCC) at a multiplicity of infection (m.o.i.) of 0.01, and each of the test compounds were provided to duplicate wells at final concentrations starting from 100 μM using ⅓ stepwise dilutions. For each compound, two wells were set aside as uninfected, untreated cell controls (CC), and two wells per test compound received virus only as a control for virus replication (VC). […] At the end of the incubation, 20 μl of cell counting kit-8 reagent (CCK-8, Dojindo Molecular Technologies, Inc.) were added to each well. After 4 hour incubation, the absorbance was measured in each well according to manufacturer's instruction, and the 50% effective concentration (EC50) was calculated by using regression analysis, based on the mean O.D. at each concentration of compound.
(§1) Compounds of Formula (I) and Formula (II) are active in the assay as noted in Tables 2 and 3, where ‘A’ indicates an EC50<1 μM, ‘B’ indicates an EC50 of >1 μM and <10 μM, ‘C’ indicates an EC50>10 μM and <100 μM, and ‘D’ indicates an EC50>100 μM.

In a further assay the test system is RSV A2. The assay is described as follows: RSV RT-PCR based assay. The class given is cell-based. The method, then: RT-PCR based assays were performed in HEp-2 cells (ATCC: CCL-23) at a concentration of 20000 cell/well were plated in 96 well plates and incubated overnight. Each of the test compounds were ⅓ serially diluted and dosed to HEp-2 cells in duplicates. The highest final concentration for each compound was 100 uM. After 24 hour compound pre-incubation, RSV A2 (ATCC: VR-1540) at MOI of 0.1 was added. Two wells per compound were set aside as uninfected, untreated cell controls (CC), and four wells per test compound received virus only as a control for virus replication (VC). The assay was stopped 4 days after virus infection and conditioned media was removed for viral RNA isolation. The quantities of the RSV virus were measured by real-time PCR using a set of RSV specific primers and probe. The data was analyzed with Prism software with EC50 defined as drug concentration that reduced the viral load 50% from the viral control (VC).
as §1

Where [1] appears, read: human respiratory syncytial virus, 144 h, CPE assay, HEp-2 cells infected with RSV Long strain, m.o.i. 0.01, 6 days, CCK-8 readout, read-out: EC50.
[2] abbreviates: human respiratory syncytial virus, RT-PCR assay, HEp-2 cells, 24 hour compound pre-incubation, RSV A2 at MOI 0.1, 4 days after infection, viral load, read-out: EC50.
Setting [3] is: human respiratory syncytial virus, HEp-2, 144 h.
Setting [4] is: human respiratory syncytial virus, HEp-2.

pEC50: −log10 of the molar value. Where two headings read alike, the source gives them in different places.

On to `CC(C)OC(=O)[C@H](C)NP(=O)(OC[C@@]1(N=[N+]=[N-])O[C@@H](n2ccc(=O)[nH]c2=O)[C@H](O)[C@@H]1O)Oc1ccccc1` (stereo partly drawn) [Compound 21, 4′-azidouridine 5′-(O-phenyl-N—(S)-1-(isopropoxycarbonyl)eth-1-yl)phosphoramidate], for which the pEC50 with RSV Long strain (setting [1]) and in the assay on RSV A2 (setting [2]) was greater than 6.00 each time.

For the compound `CC(C)OC(=O)[C@H](C)NP(=O)(OC[C@@]1(N=[N+]=[N-])O[C@@H](n2ccc(N)nc2=O)[C@H](O)[C@@H]1O)Oc1ccccc1` (stereo partly drawn) [Compound 22, 4′-azidocytidine 5′-(O-phenyl-N—(S)-1-(isopropoxycarbonyl)ethyl)phosphoramidate], the pEC50 in the assay with RSV Long strain (setting [1]) and in the assay on RSV A2 (setting [2]) was greater than 6.00 each time.

`CC(C)OC(=O)[C@H](C)NP(=O)(OC[C@@]1(N=[N+]=[N-])O[C@@H](n2ccc(N)nc2=O)[C@H](F)[C@@H]1O)Oc1ccccc1` (stereo partly drawn) [Compound 23, 4′-azido-2′-deoxy-2′-fluorocytidine 5′-(O-phenyl-N—(S)-1-(isopropoxycarbonyl)ethyl)phosphoramidate]: the pEC50 in the assay on RSV Long strain (setting [1]) and in the assay on RSV A2 (setting [2]) was 5.00 to 6.00 each time.

With `CC(C)OC(=O)[C@H](C)NP(=O)(OC[C@@]1(N=[N+]=[N-])O[C@@H](n2ccc(=O)[nH]c2=O)[C@H](F)[C@@H]1O)Oc1ccccc1` (stereo partly drawn) [Compound 24, 4′-azido-2′-deoxy-2′-fluorouridine 5′-(O-phenyl-N—(S)-1-(isopropoxycarbonyl)ethyl)phosphoramidate], the pEC50 in the assay on RSV Long strain (setting [1]) and in the assay with RSV A2 (setting [2]) was less than 4.00 in each case.

Consider `[N-]=[N+]=N[C@]1(CO)O[C@@H](n2cnc3nc(N)[nH]c(=O)c32)[C@H](O)[C@@H]1O` [Compound 25, 2-amino-7-(4-azido-β-D-ribofuranos-1-yl)-1H-purin-6(7H)-one], for which the pEC50 in the assay on RSV Long strain (setting [1]) and in the assay on RSV A2 (setting [2]) was less than 4.00 each time.

On to `CC(C)OC(=O)[C@H](C)NP(=O)(OC[C@@]1(N=[N+]=[N-])O[C@@H](n2ccc(=O)[nH]c2=O)[C@@H](F)[C@@H]1O)Oc1ccccc1` (stereo partly drawn) [Compound 26, 4′-azido-2′-deoxy-2′-fluorouarabinoridine 5′-(O-phenyl-N—(S)-1-(isopropoxycarbonyl)ethyl)phosphoramidate], for which the pEC50 with RSV Long strain (setting [1]) and with RSV A2 (setting [2]) was less than 4.00 each time.

Turning to `C[C@H](NP(=O)(OC[C@@]1(N=[N+]=[N-])O[C@@H](n2cnc3c(=O)[nH]c(N)nc32)[C@H](O)[C@@H]1O)Oc1ccccc1)C(=O)OC1CCCCC1` (stereo partly drawn) [Compound 29, 4′-azidoguanosine 5′-[O-phenyl-N—((S)-cyclohexoxycarbonyleth-1-yl))phosphoramidate], the pEC50 in the assay on RSV Long strain (setting [1]) and with RSV A2 (setting [2]) was greater than 6.00 in each case.

`C[C@H](NP(=O)(OCC1(N=[N+]=[N-])OC(n2cnc3c(=O)[nH]c(N)nc32)C(F)C1O)Oc1ccccc1)C(=O)OC1CCCCC1` (stereo partly drawn) [Compound 31, 4′-azido-2′-deoxy-2′-fluoroguanosine 5′-(O-phenyl-N—((S)-cyclohexoxycarbonyleth-1-yl))phosphoramidate]: the pEC50 is greater than 6.00 in the assay on RSV Long strain (CPE assay, HEp-2 cells infected with RSV Long strain, m.o.i. 0.01, 6 days, CCK-8 readout, read-out: EC50) and greater than 6.00 in the assay with RSV A2 (RT-PCR assay, HEp-2 cells, 24 hour compound pre-incubation, RSV A2 at MOI 0.1, 4 days after infection, viral load, read-out: EC50).

`CC(C)OC(=O)[C@H](C)NP(=O)(N[C@@H](C)C(=O)OC(C)C)OC[C@@]1(N=[N+]=[N-])O[C@@H](n2ccc(N)nc2=O)C(F)(F)[C@@H]1O` [Compound 33, 4′-azido-2′-deoxy-2′-difluorocytidine 5′-(N,N′-bis((S)-1-(isopropoxycarbonyl)ethyl))phosphordiamidate]: the pEC50 in the assay on RSV Long strain (setting [1]) and in the assay on RSV A2 (setting [2]) was greater than 6.00 throughout.

On to `CC(C)OC(=O)[C@H](C)NP(=O)(OC[C@@]1(N=[N+]=[N-])O[C@@H](n2ccc(N)nc2=O)[C@@H](O)[C@@H]1O)Oc1ccccc1` (stereo partly drawn) [Compound 34, 4′-azidoarabinocytidine 5′-(O-phenyl-N—(S)-1-(isopropoxycarbonyl)ethyl)phosphoramidate], for which the pEC50 in the assay with RSV Long strain (setting [1]) and with RSV A2 (setting [2]) was less than 4.00 throughout.

For `CC(C)OC(=O)[C@H](C)NP(=O)(OC[C@@]1(N=[N+]=[N-])O[C@@H](n2ccc(=O)[nH]c2=O)[C@@H](O)[C@@H]1O)Oc1ccccc1` (stereo partly drawn) [Compound 35, 4′-azidoarabinouridine 5′-(O-phenyl-N—(S)-1-(isopropoxycarbonyl)ethyl)phosphoramidate], the pEC50 in the assay on RSV Long strain (setting [1]) and in the assay on RSV A2 (setting [2]) was greater than 6.00 in each case.

Consider `CC(C)OC(=O)[C@H](C)NP(=O)(OC[C@@]1(N=[N+]=[N-])O[C@@H](n2ccc(=O)[nH]c2=O)[C@@H](C)[C@@H]1O)Oc1ccccc1` (stereo partly drawn) [Compound 36, 4′-azido-2′-deoxy-2′-methylarabinouridine 5′-(O-phenyl-N—(S)-1-(isopropoxycarbonyl)ethyl)phosphoramidate], for which the pEC50 with RSV Long strain (setting [1]) and in the assay with RSV A2 (setting [2]) was less than 4.00 throughout.

`CC(C)OC(=O)[C@H](C)NP(=O)(OC[C@@]1(N=[N+]=[N-])O[C@@H](n2cnc3c(N)ncnc32)[C@H](F)[C@@H]1O)Oc1ccccc1` (stereo partly drawn) [Compound 37, 4′-azido-2′-deoxy-2′-fluoroadenosine 5′-(O-phenyl-N—(S)-1-(isopropoxycarbonyl)ethyl)phosphoramidate]: the pEC50 with RSV Long strain (setting [1]) and in the assay on RSV A2 (setting [2]) was 5.00 to 6.00 each time.

In the case of `C[C@]1(F)[C@H](n2ccc(N)nc2=O)O[C@@](CO)(N=[N+]=[N-])[C@H]1O` [Compound 38, 4′-azido-2′-deoxy-2′-α-fluoro-2′-β-methylcytidine], the pEC50 with RSV Long strain (setting [1]) and in the assay on RSV A2 (setting [2]) was less than 4.00 in each case.

In the case of `CC(C)OC(=O)[C@H](C)NP(=O)(N[C@@H](C)C(=O)OC(C)C)OC[C@@]1(N=[N+]=[N-])O[C@@H](n2ccc(=O)[nH]c2=O)C(F)(F)[C@@H]1O` [Compound 39, 4′-azido-2′-deoxy-2′-difluorouridine 5′-(N,N-bis((S)-isopropoxycarbonyleth-1-yl))phosphordiamidate], the pEC50 in the assay on RSV Long strain (setting [1]) and in the assay on RSV A2 (setting [2]) was less than 4.00 each time.

Regarding `CC(C)OC(=O)[C@H](C)NP(=O)(N[C@@H](C)C(=O)OC(C)C)OC[C@@]1(N=[N+]=[N-])O[C@@H](n2ccc(=O)[nH]c2=O)[C@H](F)[C@@H]1O` [Compound 40], the pEC50 in the assay on RSV Long strain (setting [1]) and in the assay on RSV A2 (setting [2]) was less than 4.00 throughout.

In the case of `COP1(=S)OC[C@@]2(N=[N+]=[N-])O[C@@H](n3ccc(=O)[nH]c3=O)[C@H](F)[C@@H]2O1` (stereo partly shown) [Compound 41, 4′-azido-2′-deoxy-2′-fluorouridine 3′,5′-cyclic thiophosphoric acid methyl ester], the pEC50 with RSV Long strain (setting [3]) and in the assay on RSV A2 (setting [4]) was less than 4.00 in each case.

Take `[N-]=[N+]=N[C@]1(CO)O[C@@H](n2cnc(C(N)=O)n2)[C@H](O)[C@@H]1O` [Compound 43, 4′-azidoribavirin]: the pEC50 in the assay with RSV Long strain (setting [1]) and with RSV A2 (setting [2]) was 4.00 to 5.00 throughout.

Consider `CC(C)OC(=O)[C@H](C)NP(=O)(N[C@@H](C)C(=O)OC(C)C)OC[C@@]1(N=[N+]=[N-])O[C@@H](n2ccc(=O)[nH]c2=O)[C@H](O)[C@@H]1O` [Compound 44, 4′-azidouridine 5′-(N,N′-bis((S)-1-(isopropoxycarbonyl)ethyl))phosphorodiamidate], for which the pEC50 with RSV Long strain (setting [1]) and in the assay with RSV A2 (setting [2]) was less than 4.00 throughout.

Regarding `CC(C)OP1(=S)OC[C@@]2(N=[N+]=[N-])O[C@@H](n3ccc(=O)[nH]c3=O)[C@H](F)[C@@H]2O1` (stereo partly shown) [Compound 45, 4′-azido-2′-deoxy-2′-fluorouridine 3′,5′-cyclic thiophosphoric acid isopropyl ester], the pEC50 in the assay with RSV Long strain (setting [3]) and in the assay on RSV A2 (setting [4]) was less than 4.00 in each case.

For `CC(C)OP1(=S)OC[C@@]2(N=[N+]=[N-])O[C@@H](n3ccc(N)nc3=O)[C@H](F)[C@@H]2O1` (stereo partly shown) [Compound 46, 4′-azido-2′-deoxy-2′-fluorocytidine 3′,5′-cyclic thiophosphoric acid isopropyl ester], the pEC50 in the assay on RSV Long strain (setting [3]) and in the assay with RSV A2 (setting [4]) was less than 4.00 each time.

Consider `[N-]=[N+]=N[C@]1(CO)O[C@@H](n2cnc3c(=O)[nH]c(N)nc32)[C@@H](O)[C@@H]1O` [Compound 47, 4′-azidoarabinoguanosine], for which the pEC50 in the assay with RSV Long strain (setting [1]) and with RSV A2 (setting [2]) was less than 4.00 throughout.

Consider `COc1nc(N)nc2c1ncn2[C@@H]1O[C@@](CO)(N=[N+]=[N-])[C@@H](O)[C@H]1F` [Compound 48, 2-amino-9-(4-aido-2-deoxy-2-fluoro-1-ribofuranosyl)-6-methoxypurine], for which the pEC50 with RSV Long strain (setting [1]) is 5.00 to 6.00; in the assay on RSV A2 (setting [2]), greater than 6.00.
